According to ChEMBL document CHEMBL1201862, “PubChem BioAssay data set” (2004):
Where “and” joins values, the source holds several entries; their conditions need not be identical. Identical values can stand only once. Calls of active or inactive are those of the source.

Assays:
[1] = biological target: T1, Oxysterols receptor LXR-beta (Homo sapiens, UniProt P55055); format: functional, cell-based
T1 sequence (P55055 whole entry): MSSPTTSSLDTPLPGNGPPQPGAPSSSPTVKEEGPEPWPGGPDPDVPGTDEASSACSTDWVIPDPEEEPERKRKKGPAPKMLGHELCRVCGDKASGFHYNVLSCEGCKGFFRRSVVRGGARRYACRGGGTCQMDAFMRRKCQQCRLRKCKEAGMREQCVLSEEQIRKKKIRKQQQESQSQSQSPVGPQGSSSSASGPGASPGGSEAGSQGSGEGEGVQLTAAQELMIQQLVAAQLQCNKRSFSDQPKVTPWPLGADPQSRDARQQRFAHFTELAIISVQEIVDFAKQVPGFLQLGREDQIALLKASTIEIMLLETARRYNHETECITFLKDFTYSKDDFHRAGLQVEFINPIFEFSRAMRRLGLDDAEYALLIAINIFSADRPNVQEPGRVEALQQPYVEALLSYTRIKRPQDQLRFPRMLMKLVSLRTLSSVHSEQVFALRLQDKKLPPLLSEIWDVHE

[2] = Luminescence-based cell-based high throughput dose response assay to identify activators of the DAF-12 from the parasite S. stercoralis (ssDAF-12).; format: functional
[3] = biological target: T1, Oxysterols receptor LXR-beta; format: functional, cell-based; remark: listed apart in the source
cells [4] = assay: cells
[5] = biological target: Arf-GAP with SH3 domain, ANK repeat and PH domain-containing protein 1 (Homo sapiens, UniProt Q9ULH1); format: functional;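 further: biochemical fluorescence polarization dose–response screen measuring inhibition of ASAP1; ASAP1 GAP domain stimulating GTP hydrolysis by truncated human ARF1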
[6] = inhibitors of PGC1a acetylation in cells, dose response, cell-based, cherry-picked samples (AID 720514); format: functional;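 further: potency may reflect raised or lowered acetylation signal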
[7] = biological target: T2, Microphthalmia-associated transcription factor (Homo sapiens, UniProt O75030); assay: TRPM1 promoter luciferase signal decrease, dose response, MITF inhibitor project, cell-based, SK-MEL-5, cherry-picked, set 3 (AID 493073); format: functional
T2 sequence (O75030 whole entry): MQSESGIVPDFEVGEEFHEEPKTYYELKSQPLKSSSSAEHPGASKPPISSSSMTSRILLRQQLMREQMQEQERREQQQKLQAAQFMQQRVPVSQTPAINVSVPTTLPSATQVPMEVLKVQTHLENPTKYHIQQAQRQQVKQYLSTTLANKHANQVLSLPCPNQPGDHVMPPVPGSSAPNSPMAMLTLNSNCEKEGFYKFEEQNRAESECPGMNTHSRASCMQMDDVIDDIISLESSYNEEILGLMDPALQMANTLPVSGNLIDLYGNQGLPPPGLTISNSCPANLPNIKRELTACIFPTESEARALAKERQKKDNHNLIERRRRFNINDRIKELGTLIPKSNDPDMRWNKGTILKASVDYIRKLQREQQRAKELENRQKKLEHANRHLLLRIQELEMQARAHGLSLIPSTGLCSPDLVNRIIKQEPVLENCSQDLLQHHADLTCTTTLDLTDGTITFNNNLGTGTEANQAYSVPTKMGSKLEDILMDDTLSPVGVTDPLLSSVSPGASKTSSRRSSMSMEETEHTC

[8] = inhibitors of HIV Env-driven cell fusion, dose response, cherry-pick (AID 652057); format: functional, cell-based
[9] = ZM109 Env clade C HIV-1 fusion inhibitors, dose response, HeLa effector, CEM target cells, luciferase, cherry-pick (AID 652058); format: functional, cell-based
[10] = off-target signal loss in HeLa-CEM21 co-culture – HeLa F-luc CTL cells, cherry-picked, counter-screen for HIV-1 Env fusion inhibitor project, dose response (AID 652040); format: functional, cell-based;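 further: potency for signal decrease marking cytotoxic or nonspecific inhibition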
[11] = inhibitors of clade B AD8 Env fusion, dose response, cell-based, cherry-pick (AID 652062); format: functional;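 further: luciferase signal from cell-cell fusion driven by HIV-1 clade B AD8 Env; potency is for inhibitors of fusion seen as a drop in luminescence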
[12] = HIV Env cell-cell fusion inhibitors, dose response, HIV entry, plate reader, dry powder (AID 687023); format: functional, cell-based
[13] = luciferase signal loss, tTA control fusion, HeLa F-luc tTA cells, dry powder, counter-screen for HIV Env fusion inhibitor project, dose response (AID 687021); format: functional, cell-based
[14] = CEM21 cell cytotoxicity, dose response, cytotoxicity control, plate reader, dry powder (AID 687026); format: functional, cell-based
[15] = biological target: T3, Matrix metalloproteinase-14 (Homo sapiens, UniProt P50281); assay: SAR confirmation of uHTS hits for a small molecule inhibitors of MT1-MMP activation in a fluorescence assay.; format: functional
[16] = biological target: T3, Matrix metalloproteinase-14; assay: Dose Response confirmation of uHTS hits for a small molecule inhibitors of MT1-MMP activation in a fluorescence assay set 1.; format: functional
Galanin receptor type 3 = Galanin receptor type 3 (Homo sapiens, UniProt O60755); assay: Fluorescence-based cell-based primary high throughput dose response assay to identify antagonists of the Galanin Receptor 3 (GalR3).; format: functional
cells [17] = format: functional, cell-based; details: HEK-CNG
[18] = Counterscreen for […] of the human trace amine associated receptor 1 (TAAR1): Fluorescence-based cell-based high throughput dose response assay to identify nonselective Ga16 agonists.; format: functional
[19] = biological target: T4, Trace amine-associated receptor 1 (Homo sapiens, UniProt Q96RJ0); assay: Fluorescence-based cell-based high throughput dose response assay to identify antagonists of the human trace amine associated receptor 1 (TAAR1).; format: functional
T4 sequence (Q96RJ0 whole entry): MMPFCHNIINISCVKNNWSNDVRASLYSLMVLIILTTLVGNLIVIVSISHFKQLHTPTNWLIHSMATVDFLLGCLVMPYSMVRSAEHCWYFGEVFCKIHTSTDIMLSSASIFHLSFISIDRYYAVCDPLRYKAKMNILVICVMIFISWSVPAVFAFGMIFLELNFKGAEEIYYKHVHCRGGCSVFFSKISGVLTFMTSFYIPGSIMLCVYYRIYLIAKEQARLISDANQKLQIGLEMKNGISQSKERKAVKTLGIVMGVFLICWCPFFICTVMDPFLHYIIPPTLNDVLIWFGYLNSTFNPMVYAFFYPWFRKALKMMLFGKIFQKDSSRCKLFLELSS

[20] = Counterscreen for antagonists of the human trace amine associated receptor 1 (hTAAR1): Fluorescence-based cell-based high throughput dose response assay to identify nonselective Ga16 antagonists.; format: functional
[21] = biological target: T4, Trace amine-associated receptor 1; assay: Counterscreen for antagonists of the human trace amine associated receptor 1 (hTAAR1): Fluorescence-based cell-based high throughput dose response assay to identify TAAR1 Agonists.; format: functional
[22] = biological target: Long-chain-fatty-acid--AMP ligase FadD28 (Mycobacterium tuberculosis, UniProt P9WQ59); assay: Fluorescence polarization aasay to screen for inhibitors that compete for the binding of FadD28 to a bisubstrate Measured in Biochemical System Using Plate Reader - 2147-01_Inhibitor_Dose_CherryPick_Activity.; format: functional, Mycobacterium tuberculosis H37Rv
Sequence of Long-chain-fatty-acid--AMP ligase FadD28 (P9WQ59 whole entry): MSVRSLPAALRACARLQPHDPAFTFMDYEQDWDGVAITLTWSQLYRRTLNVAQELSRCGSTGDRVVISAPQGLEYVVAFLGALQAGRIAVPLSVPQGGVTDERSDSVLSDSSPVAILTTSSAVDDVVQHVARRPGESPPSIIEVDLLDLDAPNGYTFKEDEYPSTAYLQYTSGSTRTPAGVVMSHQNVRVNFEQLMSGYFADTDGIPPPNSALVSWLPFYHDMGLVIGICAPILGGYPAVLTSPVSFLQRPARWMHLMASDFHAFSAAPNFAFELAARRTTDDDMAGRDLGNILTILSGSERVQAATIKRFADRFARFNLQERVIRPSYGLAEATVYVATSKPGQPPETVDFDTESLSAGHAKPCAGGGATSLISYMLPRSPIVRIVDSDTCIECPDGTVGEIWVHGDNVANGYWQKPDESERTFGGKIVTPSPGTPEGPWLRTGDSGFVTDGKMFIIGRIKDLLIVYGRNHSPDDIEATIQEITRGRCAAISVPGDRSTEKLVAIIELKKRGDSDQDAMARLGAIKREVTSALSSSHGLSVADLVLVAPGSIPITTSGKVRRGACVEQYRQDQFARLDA

Sequence of Arf-GAP with SH3 domain, ANK repeat and PH domain-containing protein 1 (Q9ULH1 whole entry, the tested form may be a part): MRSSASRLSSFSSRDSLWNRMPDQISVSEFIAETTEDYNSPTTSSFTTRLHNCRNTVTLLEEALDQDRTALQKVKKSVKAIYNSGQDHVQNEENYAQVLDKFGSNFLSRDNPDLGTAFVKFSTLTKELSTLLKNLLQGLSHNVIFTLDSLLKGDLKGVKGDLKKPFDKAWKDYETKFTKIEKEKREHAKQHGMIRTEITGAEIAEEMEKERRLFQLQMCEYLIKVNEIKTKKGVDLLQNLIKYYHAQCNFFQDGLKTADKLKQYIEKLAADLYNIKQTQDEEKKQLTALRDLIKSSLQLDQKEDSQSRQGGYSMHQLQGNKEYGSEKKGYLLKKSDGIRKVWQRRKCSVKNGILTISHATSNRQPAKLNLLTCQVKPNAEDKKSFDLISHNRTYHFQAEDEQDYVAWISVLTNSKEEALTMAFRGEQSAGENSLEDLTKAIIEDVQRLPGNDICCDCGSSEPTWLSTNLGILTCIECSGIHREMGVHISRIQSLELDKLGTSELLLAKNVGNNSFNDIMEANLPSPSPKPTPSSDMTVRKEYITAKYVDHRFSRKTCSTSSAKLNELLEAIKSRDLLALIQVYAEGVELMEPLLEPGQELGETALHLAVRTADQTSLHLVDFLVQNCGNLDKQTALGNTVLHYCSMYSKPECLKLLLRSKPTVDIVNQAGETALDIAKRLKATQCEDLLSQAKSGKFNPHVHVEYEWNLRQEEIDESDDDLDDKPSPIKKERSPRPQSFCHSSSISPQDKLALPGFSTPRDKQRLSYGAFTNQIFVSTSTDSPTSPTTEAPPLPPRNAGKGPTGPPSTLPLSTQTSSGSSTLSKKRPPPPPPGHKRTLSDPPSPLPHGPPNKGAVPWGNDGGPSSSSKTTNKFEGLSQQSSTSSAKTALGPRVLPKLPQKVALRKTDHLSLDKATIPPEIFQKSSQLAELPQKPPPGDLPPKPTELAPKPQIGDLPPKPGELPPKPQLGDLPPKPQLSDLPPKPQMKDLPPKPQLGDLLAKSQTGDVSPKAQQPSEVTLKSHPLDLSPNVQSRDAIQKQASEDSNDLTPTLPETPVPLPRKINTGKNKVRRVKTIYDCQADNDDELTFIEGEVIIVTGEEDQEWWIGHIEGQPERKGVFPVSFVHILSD
Sequence of Galanin receptor type 3 (O60755 whole entry): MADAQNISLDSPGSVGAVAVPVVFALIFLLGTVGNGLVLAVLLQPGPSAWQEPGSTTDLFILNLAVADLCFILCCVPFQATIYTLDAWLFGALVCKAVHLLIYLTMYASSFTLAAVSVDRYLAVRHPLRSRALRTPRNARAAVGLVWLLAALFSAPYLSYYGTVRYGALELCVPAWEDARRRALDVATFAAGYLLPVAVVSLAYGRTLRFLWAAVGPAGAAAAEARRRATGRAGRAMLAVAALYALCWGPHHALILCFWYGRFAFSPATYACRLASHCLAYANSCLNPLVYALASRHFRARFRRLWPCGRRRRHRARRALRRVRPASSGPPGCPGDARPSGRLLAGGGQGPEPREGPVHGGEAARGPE

CCOC(=O)CSc1nc(-c2ccncc2)ccc1C#N
EC50 [1]: > 67.5 µM (inactive)

COc1ccc(Nc2nc(-c3ccccc3)cs2)cc1
IC50 [2]: > 67.5 µM (inactive)
EC50 [3]: > 67.5 µM (inactive)
EC50 (cells [4]): > 67.5 µM (inactive)

Clc1ccc(OCc2nn3c(-c4ccco4)nnc3s2)c(Cl)c1
IC50 [5]: 22.8 µM (inactive)

Cc1cc(-c2ccc(Cl)cc2)n2ncnc2n1
AC50 [6]: 29.8 µM (active)

Oc1ccc(CNc2ccccc2F)c2cccnc12
AC50 [7]: 15.1 µM (active)
AC50 [8]: 5.19 µM (active)
AC50 [9]: 1.58 µM (active)
AC50 [10]: 36 µM (active)
AC50 [11]: 9.33 µM (active)
AC50 [12]: > 70 µM (inactive)
AC50 [13]: > 70 µM (inactive)
AC50 [14]: 50.8 µM (active) and 64.1 µM (active)

COc1ccc(C)cc1Nc1nc(-c2c(C)[nH]c3ccccc23)cs1
IC50 [15]: > 80 µM (inactive)
IC50 [16]: 22.1 µM (inactive)

Cc1nn(C)c(Nc2ccc(Br)cc2)c1Br
IC50 (Galanin receptor type 3): 0.155 µM (active)
EC50 (cells [17]): > 29.9 µM (inactive)

COc1ccc(-c2cc(C(=O)NCC(C)C)no2)cc1
EC50 [18]: > 29.9 µM (inactive)
IC50 [19]: > 29.9 µM (inactive)
IC50 [20]: > 29.9 µM (inactive)
EC50 [21]: > 29.9 µM (inactive)

O=C(CN1C(=O)NC2(CCOc3ccccc32)C1=O)c1ccc(Cl)cc1 (stereo not drawn)
AC50 [22]: 47.9 µM (active)
